Patent US4105651A (The United States of America as represented by the …, priority 1976, dated 1978)
Read-outs that look alike come from different tables or passages of the source.

Tested on: opiate receptor sites
Description: The tests which were made in the laboratory were of the myenteric plexus-longitudinal muscle of the guinea pig ileum and the vas deferens of the mouse. In the whole animal the rates of onset and recovery are directly related to lipid solubility which facilitates drug movement to and from the brain.

| SMILES | agonist activity: inhibition of electrically evoked contractions (guinea pig ileum) | agonist activity: inhibition of electrically evoked contractions (mouse vas deferens) |
| --- | --- | --- |
| CC(C)C[C@H](NC(=O)[C@H](Cc1ccccc1)NC(=O)CNC(=O)CNC(=O)[C@@H](N)Cc1ccc(O)cc1)C(=O)O [leucine-enkephalin, H-Tyr-Gly-Gly-Phe-Leu-OH] | dose-related inhibition | dose-related inhibition |
| CSCC[C@H](NC(=O)[C@H](Cc1ccccc1)NC(=O)CNC(=O)CNC(=O)[C@@H](N)Cc1ccc(O)cc1)C(=O)O [methionine-enkephalin, H-Tyr-Gly-Gly-Phe-Met-OH] | dose-related inhibition | dose-related inhibition |
